Experimental data taken from patent publication US6482841B1, “Pyridyl compounds and pharmaceutical compositions containing them” (Cermol S.A., priority 1997, dated 2002).

Legend:
[1] = test system: isolated guinea-pig ventricular myocytes; assay: Protection of isolated ventricular myocytes from hypercontracture obtained by incubation under N2 atmosphere; format: cell-based; settings: 30 nM, with reference to vehicle-treated cells
Experimental: (§1) Isolated guinea-pig ventricular myocytes were obtained following the method described by Powell et al. (J. Physiol., 1980, 102: 131) as modified by Levi et al. (J. Physiol., 1990, 425:9P). Cell hypercontracture and death was obtained either by incubation under N2 atmosphere or by incubation with veratridine which induced important changes in the ionic homeostase of cardiomyocytes (Hiroko Hashizume et al., European Journal of Pharmacology, […], 271: 1-8). Results expressed as percentage of cells protected from hypercontracture i.e. maintaining its rod-shaped morphology with reference to vehicle-treated cells are given in the tables I and II hereafter.

[2] = test system: anaesthetised rats; assay: In vivo cardioprotective effect: coronary occlusion and reperfusion in anaesthetised rats; parameters: species or system rat; settings: 2 × 20 mg/kg orally (one day and one hour before the experiment)
Excerpt: Cardiac death and arrhythmias were induced by the coronary occlusion and reperfusion method in anaesthetised rats according to the method of Seyle et al. (Angiology, 1960, 11, 398-407) modified by Krzeminski T. (“proceedings of 7th Freiburg Focus of Biomeasurement”, Strasbourg, 16-19 September 1991) Cardiovascular and Respiratory in vivo Studies, Biomesstechnik, Verlag March GmbH, Germany) and according to the LAMBETH conventions (Walker M. J. A. et al., Cardiovasc Re., […], 22, 447-455). The products have been administered orally (one day and one hour before the experiment). They are given in percentage of protection against the mortality and the arrhythmias (ventricular fibrillations).

[3] = test system: isolated guinea-pig ventricular myocytes; assay: Protection of isolated ventricular myocytes from hypercontracture obtained by incubation with veratridine; format: cell-based; settings: 1 μM, with reference to vehicle-treated cells
Experimental: as §1

[4] = test system: guinea-pig ventricular cardiomyocytes action potential; assay: Action potential of ventricular cardiomyocytes in the presence of veratridine (patch clamp); format: cell-based
Experimental: (§2) In order to confirm the cardioprotection, the activity of one of the most interesting compound (example 31 according to the invention) was tested on guinea-pig ventricular cardiomyocytes action potential (AP) in the presence of veratridine or in anoxic condition. The action potential (AP) time courses of guinea-pig ventricular cardiomyocytes treated with veratridine or made anoxic by incubation under N2 atmosphere were measured (patch clamp technique) in absence and presence of the compound of example 31 according to the invention. […] In anoxic conditions, there is a shortening of cardiomyocyte action potential duration related mainly with an activation of K+-ATP dependent current.

[5] = test system: guinea-pig ventricular cardiomyocytes action potential; assay: Action potential of ventricular cardiomyocytes in anoxic condition under N2 atmosphere (patch clamp); format: cell-based; settings: 100-300 nM
Experimental: as §2

Row | melting point [°C] | Compound | % Protection (cells protected from hypercontracture) [1] [%] | % PROTECTION AGAINST DEATH [2] [%] | % PROTECTION AGAINST VENTRICULAR FIBRILLATIONS [2] [%] | % Protection (cells protected from hypercontracture) [3] [%] | Prolongation of cardiomyocyte action potential duration induced by veratridine ([4]; 100-300 nM, veratridine) | Influence on the normal action potential ([4]; normal action potential) | Shortening of cardiomyocyte action potential duration in anoxic conditions (K+-ATP dependent current) [5]
1 | 196 to 198 | COC(=O)c1c(C)nc(C)c(C(=O)OCC2CCCO2)c1-c1cccc(NC(C)=O)c1.Cl (centres unmarked) | – | – | – | – | – | – | –
2 | 95 to 97 | COC(=O)c1c(C)nc(C)c(C(=O)OCC2CCCO2)c1-c1cccc(O)c1.Cl (centres unmarked) | – | – | – | – | – | – | –
3 | 132 to 134 | COC(=O)c1c(C)nc(C)c(C(=O)OCC2CCC(=O)O2)c1-c1ccccc1[N+](=O)[O-] (centres unmarked) [Example 15, 2,6-Dimethyl-4-(2-nitrophenyl) pyridine-3,5-dicarboxylic acid 3-methyl ester 5-(5-oxotetrahydrofuran-2-ylmethyl)ester] | – | – | – | – | – | – | –
4 | – | COC(=O)c1c(C)nc(C)c(C(=O)OC)c1-c1ccccc1[N+](=O)[O-] [Example 25, 2,6-Dimethyl-4-(2-nitrophenyl) pyridine-3,5-dicarboxylic acid dimethyl ester] | 50 | 100 | 50 | 34 | – | – | –
5 | 75 to 77 | Cc1nc(C)c(C(=O)OCC2CCCO2)c(-c2cccc([N+](=O)[O-])c2)c1C(=O)OCC1CCCO1.Cl (centres unmarked) | – | – | – | – | – | – | –
6 | – | COC(=O)c1c(C)nc(C)c(C(=O)OCC2CCCO2)c1-c1ccccc1[N+](=O)[O-] (centres unmarked) [Example 12, 2,6-Dimethyl-4-(2-nitrophenyl) pyridine-3,5-dicarboxylic acid 3-methyl ester 5-(tetrahydrofuran-2-ylmethyl) ester] | 80 | 100 | 100 | 57 | – | – | –
7 | – | COC(=O)c1c(C)nc(C)c(C(=O)OCC(C)C)c1-c1ccccc1[N+](=O)[O-] [Example 23, 2,6-Dimethyl-4-(2-nitrophenyl)-pyridine-3,5-dicarboxylic acid 3-methyl ester 5-isobutyl ester] | 50 | 100 | 75 | 41.3 | – | – | –
8 | 66 to 68 | COC(=O)c1c(C)nc(C)c(C(=O)OCC2CCCO2)c1-c1cccc(F)c1 (centres unmarked) [Example 3, 2,6-Dimethyl-4-(3-fluorophenyl) pyridine-3,5-dicarboxylic acid 3-methyl ester 5-(tetrahydrofuran-2-ylmethyl) ester] | – | – | – | – | – | – | –
9 | – | CCOC(=O)c1c(C)nc(C)c(C(=O)OC)c1-c1cccc([N+](=O)[O-])c1 [Example 24, 2,6-Dimethyl-4-(3-nitrophenyl)pyridine-3,5-dicarboxylic acid 3-ethyl 5-methyl ester] | 60 | 100 | 37.5 | 37.5 | – | – | –
10 | – | COCCOC(=O)c1c(C)nc(C)c(C(=O)OC(C)C)c1-c1cccc([N+](=O)[O-])c1 [Example 22, 2,6-Dimethyl-4-(3-nitrophenyl)-pyridine-3,5-dicarboxylic acid 3-isopropyl ester 5-(2-methoxyethyl) ester] | 63 | 100 | 50 | 37.5 | – | – | –
11 | – | COC(=O)c1c(C)nc(C)c(C(=O)O)c1-c1ccccc1[N+](=O)[O-] [Example 31, 2,6-Dimethyl-4-(2-nitrophenyl) pyridine-3,5-dicarboxylic acid 3-methyl ester] | 58 | 85.7 | 73.4 | 64 | prevents | does not influence significantly | inhibited dose-dependently and strongly
